For 90 molecules, melting point results are on record in a melting point compilation (Tetko et al.; mined from patent text by program, amines drawn as free bases though some values may be those of a salt).

In general, melting point refers to the temperature of the solid-liquid transition.

As for `CN(C)CCc1[nH]c2ccccc2c1CSC1=NCCS1`, the melting point lay in the range of 140 to 143 °C.

The molecule `CCNC(=O)Nc1ccc(C(O)(C(F)(F)F)C(F)(F)F)cc1[N+](=O)[O-]` displayed a melting point of 169 to 171 °C.

`CN(C)Cc1nc(-c2ncn3c2C2CCCN2C(=O)c2c(Cl)cccc2-3)no1` (stereo not given) displayed a melting point of 261 °C.

`CN(C)Cc1ccc(CSCCNC2=NS(=O)N=C2N)o1` (stereo not given) registered a melting point of 139 to 142 °C.

Turning to `COC(=O)c1ccc(-c2nc(OC(C)=O)c(C)s2)cc1`, the melting point is 124 to 125 °C.

Molecule `Cc1cc(OC2CCCCO2)c(C)cc1OCCCC(C)(C)C(=O)O` (stereo not given) returned a melting point of 122 to 124 °C.

For the molecule `COc1ccc2c(c1)C(CCCCNC(C)=O)=CCC2`, the melting point lay within 79 to 81 °C.

As for `COc1ccc2cc(-c3cccc(C=O)c3)cc(CCNC(C)=O)c2c1`, the melting point fell in the range of 123 to 125 °C.

For `CC(C)(C)OC(=O)N[C@@H](Cc1ccccc1)C(=O)NC1CCC(Nc2cccc3c2C(=O)c2ccccc2C3=O)CC1` (stereo not given in full), the melting point was 142 °C.

`CC(C)N1CCN(c2ccc(C(=O)NCCCCCCCCCCCCO[N+](=O)[O-])cn2)CC1` gave a melting point of 56 to 58 °C.

Take `CC(=O)Nc1nc(C)n2c1CN=C(c1ccccc1F)c1cc(Cl)ccc1-2`: the melting point was in the range of 175 to 178 °C.

In turn, `COCCC(=O)N[C@H]1CC[C@H](CCN2CCN(c3ncc(C)c4occc34)CC2)CC1` came in with a melting point of 177 °C.

For `C[C@H]1COc2c(N3CC(C)(N)C4(CC4)C3)c(F)cc3c(=O)c(C(=O)O)cn1c23` (stereo not given in full), the melting point lay within 268 to 270 °C.

Consider `COc1ccc(C2=NN(c3ccccc3)C(=O)[C@H]3CC=CC[C@@H]23)cc1Cl` (relative stereo), for which the melting point lay in the range of 151 to 152 °C.

`CCc1c(C(=O)C(N)=O)c2ccsc2n1Cc1ccccc1`: the melting point lay within 90 to 92 °C.

Turning to `Cc1cc([N+](=O)[O-])ccc1NC(=O)C1=C(O)N(C)S(=O)(=O)c2cscc21`, the melting point fell in the range of 186 to 188 °C.

`CCOC(=O)CNc1ncccc1NC(=O)c1ccc(C)s1` came in with a melting point of 112 to 115 °C.

Take `O=C(O)COc1ccc([N+](=O)[O-])c(C(F)(F)F)c1`: the melting point was in the range of 92 to 95 °C.

In the case of `OC(c1ccccc1)(c1cccc(C(F)(F)F)c1)N1CCCCC1` (stereo not given), the melting point lay within 97 to 100 °C.

Molecule `COC1CCN(c2cc(NC(=O)OC(C)(C)C)c(N)cc2C#Cc2ccccc2)CC1` had a melting point of 173 to 176 °C.

In turn, `CNc1ccc(F)c2c1C(=O)c1ccccc1-2` gave a melting point of 139 to 144 °C.

With `COc1ccc(N2C(=O)C(=C3CCCN3C)c3ccccc32)cc1Cl`, the melting point fell in the range of 126 to 128 °C.

The molecule `O=c1ccc(-c2c(-c3ccccc3)nn3ccccc23)nn1[C@@H]1CCCC[C@@H]1O` (relative stereo) registered a melting point of 195 to 197 °C.

Take `CCOC(=O)C1=C(C(Br)Br)Nc2ncnn2C1C` (stereo not given): the melting point lay in the range of 170 to 171 °C.

`CC(O)(CCCl)c1ccc(-c2cccc(Cl)c2)cc1` (stereo not given) had a melting point of 98 to 100 °C.

`Cc1ccc(C=CC(=O)c2ccc3c(c2)C(C)(C)CCC3(C)C)cc1` registered a melting point of 153 to 154 °C.

As to `O=C1C(c2ccccc2)=C(c2ccccc2)C(=O)N1Cc1ccccc1F`, the melting point lay in the range of 113 to 114 °C.

For the molecule `C#CC(C)(C)c1cc(N)no1`, the melting point is 98 to 100 °C.

`O=C1CCOc2c(Cl)cc(Br)cc21` registered a melting point of 109 °C.

The molecule `S=c1n(CCc2ccc(-c3nnn[nH]3)cc2)ccn1C1CCc2ccccc2C1` (stereo not given) showed a melting point of 218 to 220 °C.

`CCCCC[C@@H](CNC(=O)Nc1c(OC(C)C)c(C)nn1-c1ccccc1)c1cccc2c1OCO2` came in with a melting point of 126 °C.

Consider `CCOC(=O)C1=C(C)NC(C)=C(C(=O)OC2CCCCC2)C1c1cccc([N+](=O)[O-])c1` (stereo not given), for which the melting point was determined as 135 °C.

With `Cn1cc(C#N)c(Br)c1Br`, the melting point was in the range of 138 to 139 °C.

With `O=C(O)CCC(=O)Nc1ccc2oc(-c3ccc(O)cc3)c(O)c(=O)c2c1`, the melting point was in the range of 256 to 257 °C.

`CNC(=O)N1CC(Oc2ccccc2C(N)=O)C1` yielded a melting point of 236 to 240 °C.

In turn, `CC(C)Cc1cccc(CCCn2c(=O)c3c(Cl)cc(Cl)cc3n(Cc3ccccc3)c2=O)c1` returned a melting point of 108 to 111 °C.

`COc1cc(C=CC(=O)CCCCCBr)cc(OC)c1` yielded a melting point of 73 to 76 °C.

For the molecule `COc1c(N)cc(C(=O)O)cc1S(N)(=O)=O`, the melting point turned out to be 210 °C.

In turn, `CNC(=S)C1=C(O)C(C)(COC)Oc2ccc([N+](=O)[O-])cc21` (stereo not given) returned a melting point of 139 to 141 °C.

As for `CN1CCC(OC(=O)c2ccccc2Nc2ccnc3cc(C(F)(F)F)ccc23)CC1`, the melting point stood at 116 °C.

Turning to `O=C1C(=O)c2ccccc2C2=C1SCC1(CCN(C(=O)Cc3ccc(Cl)cc3)CC1)O2`, the melting point lay in the range of 120 to 125 °C.

Regarding `CCC(=N)NC(=O)Nc1ccc(Cl)cc1`, the melting point lay in the range of 191 to 192 °C.

Turning to `COc1cc(Nc2cc(C(F)(F)F)nc(-c3cc(Cl)nc(Cl)c3)n2)cc(OC)c1`, the melting point fell in the range of 109 to 110 °C.

`O=[N+]([O-])c1cn2c(n1)O[C@@H](COc1ccc(N3CCN(Cc4ccc(Oc5ccc(C(F)(F)F)cn5)cc4)CC3)cc1)CC2` registered a melting point of 229 to 230 °C.

As for `Cc1ccc(-c2nnc(N(CCCCOCC(=O)O)C(C)C)nc2-c2ccc(C)cc2)cc1`, the melting point lay within 119 to 121 °C.

`Cc1nnc(-c2ccc3occ(-c4ccccc4C)c3c2)o1` came in with a melting point of 83 to 84 °C.

As to `CC(=O)c1ccc(OCn2cc(Cl)cnc2=O)cc1`, the melting point stood at 182 °C.

In the case of `C=CC(O)c1cc(O)ccc1[N+](=O)[O-]` (stereo not given), the melting point fell in the range of 126 to 130 °C.

`O=C(c1cc2ccc(N3CCCCC3)cc2o1)C12CC3CC(CC(C3)C1)C2`: the melting point fell in the range of 150 to 152 °C.

For `CC1Cc2cc(Cl)ccc2C(c2ccc([N+](=O)[O-])cc2)O1` (stereo not given), the melting point was in the range of 118 to 120 °C.

The molecule `c1ccc(CN2c3ccccc3-c3noc4c3C2CCC4)cc1` (stereo not given) registered a melting point of 162 to 164 °C.

Consider `CCC(NCC(F)(F)F)c1ccc(Cl)c2nc3n(c12)CCCN3c1ccc(Cl)cc1Cl` (stereo not given), for which the melting point lay within 133 to 135 °C.

As for `O=C(c1ccc(OC(F)(F)F)cc1)N1CCc2cc(S(=O)(=O)N3CC(c4ccccc4)NC3=O)ccc21` (stereo not given), the melting point was in the range of 180 to 182 °C.

On to `COc1ccc(Oc2ccc(C(F)(F)F)cc2Cl)cc1[N+](=O)[O-]`, for which the melting point was in the range of 90 to 92 °C.

Take `CCCc1c(C(=O)NCc2ccc(-c3ccc(OCC#N)c(Br)c3)cc2)cnn1-c1ccccc1`: the melting point lay in the range of 102 to 109 °C.

In turn, `COc1ccc(C2=NN(C3CCN(C(=O)NC(C)(C)C)CC3)C(=O)[C@H]3CC=CC[C@@H]23)c2c1OC(C)(C)C2` (relative stereo) displayed a melting point of 145 to 147 °C.

The molecule `O=c1[nH]ccn1-c1ccc(F)cc1` yielded a melting point of 166 to 167 °C.

Turning to `COC(=O)[C@H](Cc1ccc(NC(=O)c2c(Cl)cccc2Cl)cc1)NC(=O)c1ccc(C(=O)Nc2cccc(O)c2)cc1Cl`, the melting point lay in the range of 230 to 232 °C.

Molecule `CC(=O)SC(CC(=O)c1ccc(Cl)c(Cl)c1)C(=O)O` (stereo not given) yielded a melting point of 102 to 105 °C.

As for `O=C(O)c1cc(-c2ccccc2Cl)c[nH]c1=O`, the melting point was in the range of 299 to 303 °C.

The molecule `CCC(=O)c1ccn(S(=O)(=O)c2ccccc2)c1C` returned a melting point of 105 to 110 °C.

In turn, `Cc1cc2c(-c3cccc(C(F)(F)F)c3)nc(C#N)nc2s1` showed a melting point of 121 to 122 °C.

`CN1CCN(C2CC3C4CCC5CC6OC6CC5(C)C4CCC3(C)C2=O)CC1` (stereo not given) yielded a melting point of 132 to 134 °C.

`O=C(O)/C=C/C=C(c1ccc(Cl)cc1)c1ccc(Cl)cc1` had a melting point of 213 to 215 °C.

In the case of `CCOC(=O)c1cnc(Cl)cc1NCc1ccc(OC)c(Cl)c1`, the melting point lay in the range of 116 to 118 °C.

For the molecule `CCCCCCCCCCCCOc1ccc(C#N)cc1-c1cc(C#N)ccc1OCCCCCCCCCCCC`, the melting point was in the range of 168 to 170 °C.

Molecule `O=C1C=CC2=C(C1)Cc1ccccc1OCO2` returned a melting point of 93 to 95 °C.

For `COC(=O)Nc1nc2cc(C(C3CC3)n3ccnc3)ccc2[nH]1` (stereo not given), the melting point came to 218 °C.

`CC(C)(C)C1CCc2nnc(Cl)cc2C1` (stereo not given): the melting point was in the range of 96 to 97 °C.

As to `CC(C)C[C@H](NC(=O)[C@@H]1CCCN1c1nc2ccccc2c(=O)o1)C(=O)NCC(N)=O`, the melting point was in the range of 199 to 201 °C.

Turning to `Cc1cc2n(c(=O)n1)C(C)N=C2` (stereo not given), the melting point fell in the range of 231 to 232 °C.

As to `C=C1C=Cc2cc(C(=O)O)ccc2OC1`, the melting point worked out at 188 °C.

Turning to `O=C1CC(=O)/C(=C/c2ccccc2)N1`, the melting point lay within 186 to 187 °C.

`NS(=O)(=O)c1cc2c(Cl)c(O)ccc2s1` gave a melting point of 198 to 201 °C.

Take `CC1(OCc2ccccc2F)COC(c2cccc(F)c2)OC1` (stereo not given): the melting point was 83 to 84 °C.

`CC1=C(CCC(C)(O)C#CCO)C(C)(C)CCC1` (stereo not given) had a melting point of 83 to 84 °C.

The molecule `CC1(C)CC(OC(=O)CCCCCCCCC(=O)OC2CC(C)(C)N(OC(=O)c3ccccc3)C(C)(C)C2)CC(C)(C)N1OC(=O)c1ccccc1` came in with a melting point of 92 to 100 °C.

Regarding `Cc1ccc2cc(C=O)ccc2c1`, the melting point was 110 to 111 °C.

Molecule `COc1ccc(-c2cc(=O)c3c(O)cc(OC)cc3o2)cc1` showed a melting point of 174 to 175 °C.

As to `COc1ccc(C(=O)COc2ccc(NC3=NCCN3)cc2)cc1`, the melting point is 65.5 to 69 °C.

`O=C(O)c1ccc(CCNc2c(C(=O)O)cc(Cl)cc2[N+](=O)[O-])cc1` yielded a melting point of 255 to 257 °C.

In turn, `Nc1nc(Nc2ccccc2)sc1C=O` came in with a melting point of 212 to 213 °C.

Molecule `Cc1cc(Oc2ncc(Cl)cc2Cl)cc(C)c1N=C=NC(C)(C)C` returned a melting point of 69 to 71 °C.

`CC(=O)OCC1COc2c(ccc(F)c2F)N1` (stereo not given) returned a melting point of 73 to 74 °C.

Turning to `CC#CCOc1ccc(C(=O)NC[C@@H](C(=O)NO)N2CCN(S(C)(=O)=O)CC2)cc1`, the melting point stood at 127 °C.

With `CNc1nc(-c2cccnc2)nc(NC)c1C(=O)Nc1ccc(C)c(C)c1`, the melting point lay within 285 to 286 °C.

The molecule `CC1(C)C=C(c2cccc(C(F)(F)F)c2)c2ccc(O)cc2O1` came in with a melting point of 102 to 106 °C.

Molecule `CC(=O)CSc1nc2ccccc2[nH]1` returned a melting point of 112 to 113 °C.

As to `COc1ccc(C(=O)Nc2cccc(Cl)c2)cc1N`, the melting point was in the range of 144 to 146 °C.

Take `Cc1ccc(COc2cccc(/C=C/c3ccc(CN4CCCCC4)cc3)c2)cc1`: the melting point was 87 to 88 °C.
